Measured values: patent EP0540090A2, “Liquid cleaning compositions” (UNILEVER N.V., priority 1991, dated 1993)
Like-named read-outs stand apart in the source and are kept apart here.

Legend:
[1] = Precursor solubility in the liquid phase (2:1 nonionic surfactant blend Vista NI and Synperonic A3), by GC (TAED) and HPLC (rest)
[2] = Storage stability of precursor and percarbonate in the non-aqueous liquid formulation of Example 1; details: Example 1 formulation, after storage for 8 weeks at ambient temperature
Method: The following formulation containing various types of precursors was tested for percarbonate and precursor stability:

[3] = 2:1 nonionic surfactant combination (Vista NI and Synperonic A3), ambient temperature
[4] = 2:1 nonionic surfactant combination (Vista NI and Synperonic A3), ambient temperature, molar solubility multiplied by number of active groups

| Compound | % w/w dissolved [1] [% w/w] | mmol% active groups dissolved [1] [mmol%] | stability precursor [2] [% **)] | % w/w dissolved [1, 3] [% w/w] | mmol% active groups dissolved [1, 4] [mmol%] |
| --- | --- | --- | --- | --- | --- |
| 2-(N,N,N-trimethylammonium)ethyl sodium 4-sulphophenyl carbonate [Compound B] | <0.025 | <0.08 |  |  |  |
| C[N+](C)(C)Cc1ccc(C(=O)Oc2ccc(S(=O)(=O)[O-])cc2)cc1 [Compound A, 1-[4-(N,N,N-trimethylammoniummethyl)benzoyloxy] benzene-4-sulphonate] |  |  | 88 | <0.05 | <0.14 |
| C[N+](C)(C)c1ccc(C(=O)Oc2ccc(S(=O)(=O)[O-])cc2)cc1 [Compound E] |  |  |  | <0.01 | <0.03 |
